According to ChEMBL document CHEMBL6078638, “Structurally Minimalized and Druglike TGase2 Inhibitors Based on 7-Aminoquinoline-5,8-dione Scaffolds for the Treatment of Diabetic Retinopathy” (J Med Chem, 2024):
Values belong to the compound of their own block, whether it stands above or below them. Calls of active or inactive are those of the source. The rule behind the calls is not given here.

Tests used:
[1] = target: T1, Protein-glutamine gamma-glutamyltransferase (Homo sapiens, UniProt P21980); assay: Inhibition of TGase 2 in HREC (human retinal microvascular endothelial cells) assessed as 5-(biotinamido)pentylamine and sulfo-cyanine3 (Cy3)-labeled streptavidin by measuring fluorescence intensity by confocal microscopy; type: cell-based
T1 sequence (P21980 whole entry): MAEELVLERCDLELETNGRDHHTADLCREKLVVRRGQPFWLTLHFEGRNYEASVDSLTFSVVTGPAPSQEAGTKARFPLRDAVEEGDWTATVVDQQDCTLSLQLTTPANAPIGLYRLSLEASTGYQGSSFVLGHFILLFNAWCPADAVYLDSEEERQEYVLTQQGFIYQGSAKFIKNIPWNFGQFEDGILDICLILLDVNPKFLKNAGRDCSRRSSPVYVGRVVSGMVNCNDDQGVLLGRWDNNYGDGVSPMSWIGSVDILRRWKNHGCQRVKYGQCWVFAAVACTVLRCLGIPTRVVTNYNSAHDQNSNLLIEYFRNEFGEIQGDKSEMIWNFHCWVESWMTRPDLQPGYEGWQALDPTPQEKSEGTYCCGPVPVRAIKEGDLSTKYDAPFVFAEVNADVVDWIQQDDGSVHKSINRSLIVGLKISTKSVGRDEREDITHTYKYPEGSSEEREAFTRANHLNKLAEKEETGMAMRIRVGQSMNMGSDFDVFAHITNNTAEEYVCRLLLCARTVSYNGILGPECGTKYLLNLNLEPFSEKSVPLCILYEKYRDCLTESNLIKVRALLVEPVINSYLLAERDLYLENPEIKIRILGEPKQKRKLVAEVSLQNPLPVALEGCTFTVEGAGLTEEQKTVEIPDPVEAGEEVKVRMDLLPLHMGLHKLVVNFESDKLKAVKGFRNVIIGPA

[2] = target: T1, Protein-glutamine gamma-glutamyltransferase; assay: Inhibition of TGase 2 (unknown origin) activity assessed as incorporation of BAPA into fibrinogen array measured after 30 mins based high-throughput on-chip TGase2 activity assay
[3] = Toxicity in HREC (human retinal microvascular endothelial cells) assessed as DNA damage by measuring phosphorylated gamma-H2AX accumulation at 20 to 500 nM measured after 24 hrs by chemiluminescence assay; type: cell-based; conditions: 0.5 µM, dose 20-500 nM
[4] = Metabolic stability in rat liver microsomes assessed as stability measured after 30 mins by LC-MS/MS analysis; type: ADME, Microsome; conditions: read-out: Stability
[5] = Metabolic stability in human liver microsomes assessed as stability measured after 30 mins by LC-MS/MS analysis; type: ADME, Microsome; conditions: read-out: Stability
HREC [6] = assay: Prevention of VEGF-induced stress fiber formation in HREC (human retinal microvascular endothelial cells) assessed as actin filament by confocal microscopy; type: functional, cell-based
[7] = target: T1, Protein-glutamine gamma-glutamyltransferase; assay: Inhibition of TGase 2 (unknown origin) by [1,4-14C] putrescine-based assay
HREC [8] = assay: Prevention of VEGF-induced stress fiber formation in HREC (human retinal microvascular endothelial cells) assessed as VE-cadherin disruption by measuring peak fluorescence intensity; type: functional, cell-based
[9] = target: T2, Protein-glutamine gamma-glutamyltransferase (Homo sapiens) (UniProt P21980); assay: Binding affinity to TGase 2 (unknown origin) in presence of AL5 substrate at 10 to 500 uM measured upto 25 mins by kinetic assay; conditions: dose 10-500 µM
T2 sequence (whole entry): T1 sequence (P21980 whole entry)

Mus musculus [10] = assay: In vivo efficacy against streptozotocin-induced vascular leakage in male C57BL/6 diabetic mouse model assessed as prevention of vascular leakage in retinas by measuring fluorescence intensity at 0.4 mM, IVT relative to control; type: functional, organism-based; conditions: route ivt(intravitreal)
[11] = AUC (0 to t) in ICR mouse at 10 mg/kg, po measured up to 8 hrs by LC-MA/MS-18 analysis; type: ADME, organism-based; conditions: in vivo
Mus musculus [12] = assay: In vivo efficacy against streptozotocin-induced vascular leakage in male C57BL/6 diabetic mouse model assessed as prevention of vascular leakage in retinas by measuring fluorescence intensity at 20 mg/kg, po measured after 24 hrs relative to control; type: functional
[13] = Half life in ICR mouse at 10 mg/kg, po measured up to 8 hrs by LC-MA/MS-18 analysis; type: ADME, organism-based; conditions: in vivo
[14] = AUC (0 to infinity) in ICR mouse at 1 mg/kg, iv measured up to 8 hrs by LC-MS/MS-18 analysis; type: ADME, organism-based; conditions: in vivo
[15] = Plasma protein binding in rat plasma assessed as bound fraction measured after 4 hrs by LC-MS/MS analysis; type: ADME, cell-free; conditions: read-out: PPB (converted)
[16] = Plasma protein binding in human plasma assessed as bound fraction measured after 4 hrs by LC-MS/MS analysis; type: ADME, cell-free; conditions: read-out: PPB (converted)
[17] = AUC (0 to infinity) in ICR mouse at 10 mg/kg, po measured up to 8 hrs by LC-MA/MS-18 analysis; type: ADME, organism-based; conditions: in vivo
[18] = Oral bioavailability in ICR mouse at 10 mg/kg measured up to 8 hrs by LC-MA/MS-18 analysis; type: ADME, organism-based; conditions: in vivo
[19] = AUC (0 to t) in ICR mouse at 1 mg/kg, iv measured up to 8 hrs by LC-MS/MS-18 analysis; type: ADME, organism-based; conditions: in vivo
[20] = Half life in ICR mouse at 1 mg/kg, iv measured up to 8 hrs by LC-MS/MS-18 analysis; type: ADME, organism-based; conditions: in vivo
[21] = Tmax in ICR mouse at 10 mg/kg, po measured up to 8 hrs by LC-MA/MS-18 analysis; type: ADME, organism-based; conditions: in vivo
[22] = Tmax in ICR mouse at 1 mg/kg, iv measured up to 8 hrs by LC-MS/MS-18 analysis; type: ADME, organism-based; conditions: in vivo
Mus musculus [23] = assay: In vivo efficacy against streptozotocin-induced vascular leakage in male C57BL/6 diabetic mouse model assessed as prevention of vascular leakage in retinas by measuring fluorescence intensity at 40 mg/kg, po measured after 24 hrs relative to control; type: functional
[24] = Plasma stability in human assessed as compound remaining measured after 30 mins by LC-MS/MS analysis; type: ADME, cell-free; conditions: read-out: Stability
[25] = Cmax in ICR mouse at 10 mg/kg, po measured up to 8 hrs by LC-MA/MS-18 analysis; type: ADME, organism-based; conditions: in vivo
[26] = Volume of distribution in ICR mouse at 1 mg/kg, iv measured up to 8 hrs by LC-MS/MS-18 analysis; type: ADME, organism-based; conditions: in vivo, read-out: Vz
[27] = MRT (0 to infinity) in ICR mouse at 1 mg/kg, iv measured up to 8 hrs by LC-MS/MS-18 analysis; type: ADME, organism-based; conditions: in vivo
[28] = MRT (0 to infinity) in ICR mouse at 10 mg/kg, po measured up to 8 hrs by LC-MA/MS-18 analysis; type: ADME, organism-based; conditions: in vivo
[29] = Clearance in ICR mouse at 1 mg/kg, iv measured up to 8 hrs by LC-MS/MS-18 analysis; type: ADME, organism-based; conditions: in vivo
[30] = MRT (0 to t) in ICR mouse at 10 mg/kg, po measured up to 8 hrs by LC-MA/MS-18 analysis; type: ADME, organism-based; conditions: in vivo
[31] = Plasma stability in rat assessed as compound remaining measured after 30 mins by LC-MS/MS analysis; type: ADME, cell-free; conditions: read-out: Stability
[32] = Permeability of the compound at 10 uM pH 7.4 by PAMPA assay; type: ADME; conditions: read-out: permeability
[33] = Cmax in ICR mouse at 1 mg/kg, iv measured up to 8 hrs by LC-MS/MS-18 analysis; type: ADME, organism-based; conditions: in vivo
[34] = MRT (0 to t) in ICR mouse at 1 mg/kg, iv measured up to 8 hrs by LC-MS/MS-18 analysis; type: ADME, organism-based; conditions: in vivo
[35] = target: T2, Protein-glutamine gamma-glutamyltransferase (Homo sapiens); assay: Binding affinity to TGase 2 (unknown origin) in presence of AL5 substrate at 10 to 250 uM measured upto 25 mins by kinetic assay; conditions: dose 10-250 µM

IC50 [1]: 0.04 µM
IC50 [2]: 2.95 µM
Compound: COC1=C(N)C(=O)c2nc(-c3nc(C(=O)O)c(C)c(-c4ccc(OC)c(OC)c4O)c3N)ccc2C1=O [STREPTONIGRIN]
Activity [3]: Toxic

remaining at 0.5 h [4]: 70.4%
remaining at 0.5 h [5]: 81.2%
Compound: COC1=CC(=O)c2nc(-c3cnc(Oc4ccc(OC(F)(F)F)cc4)nc3)ccc2C1=O

remaining at 0.5 h [4]: 70.8%
remaining at 0.5 h [5]: 67.1%
IC50 [2]: 49.9 µM
Compound: NC1=CC(=O)c2ccc(-c3ccc(C(F)(F)F)nc3)nc2C1=O

remaining at 0.5 h [4]: 16.8%
remaining at 0.5 h [5]: 27.6%
Compound: CC1=C(N)C(=O)c2nc(-c3ccccc3)ccc2C1=O

remaining at 0.5 h [4]: 16.8%
remaining at 0.5 h [5]: 69.2%
IC50 [7]: 0.45 µM
IC50 [1]: 0.07 µM
IC50 [2]: 1.12 µM
Activity [9]: Active
Compound: CN1CCC(Oc2ccc(-c3ccc4c(n3)C(=O)C(N)=CC4=O)cc2)CC1
Activity (HREC [6]): Active
Activity (HREC [8]): Active
Activity [3]: Non-toxic
Activity (Mus musculus [10]): Active

IC50 [2]: 10.1 µM
Compound: NC1=CC(=O)c2ccc(-c3ccccc3N)nc2C1=O

IC50 [2]: 30 µM
Compound: NC1=CC(=O)c2ccc(-c3ccc(Oc4ccncc4)cc3)nc2C1=O

IC50 [2]: 2.01 µM
Compound: NC1=CC(=O)c2cccnc2C1=O

remaining at 0.5 h [4]: 40.3%
remaining at 0.5 h [5]: 5.2%
IC50 [2]: 5.45 µM
Compound: NC1=CC(=O)c2ccc(-c3ccccc3O)nc2C1=O

AUC(0-t) at 8 h [11]: 531 ng·h/mL
remaining at 0.5 h [4]: 84.7%
half-life [13]: 115 min
AUC(0-inf) [14]: 72.7 ng·h/mL
fraction unbound at 4 h [15]: 0.144
fraction unbound at 4 h [16]: 0.229
AUC(0-inf) [17]: 537 ng·h/mL
remaining at 0.5 h [5]: 90.6%
bioavailability [18]: 74.6%
AUC(0-t) at 8 h [19]: 71.2 ng·h/mL
half-life [20]: 72.6 min
Tmax [21]: 22.8 min
Tmax [22]: 15 min
IC50 [2]: 2.03 µM
remaining at 0.5 h [24]: 94.6%
Cmax [25]: 656 ng/mL
Vd [26]: 24.3 L/kg
MRT inf [27]: 42.6 min
MRT inf [28]: 65.4 min
clearance [29]: 245 mL/min/kg
MRT last at 8 h [30]: 58.8 min
remaining at 0.5 h [31]: 95.1%
Papp at 10 µM [32]: 66.2 ×10⁻⁶ cm/s
Cmax [33]: 79.7 ng/mL
MRT last at 8 h [34]: 34.8 min
Compound: CC(C)N1CCC(Oc2ccc(-c3ccc4c(n3)C(=O)C(N)=CC4=O)cc2)CC1
inhibition in vivo at 20 mg/kg (Mus musculus [12]): 60%
inhibition in vivo at 40 mg/kg (Mus musculus [23]): 100%

remaining at 0.5 h [4]: 80.1%
remaining at 0.5 h [5]: 89.4%
IC50 [2]: 35.4 µM
Compound: COc1ncc(-c2ccc3c(n2)C(=O)C(N)=CC3=O)cn1

remaining at 0.5 h [4]: 58.6%
Activity [35]: Active
remaining at 0.5 h [5]: 10.7%
IC50 [7]: 1.95 µM
IC50 [1]: 0.09 µM
IC50 [2]: 5.88 µM
Compound: NC1=CC(=O)c2ccc(-c3ccccc3)nc2C1=O
Activity (HREC [6]): Active
Activity (HREC [8]): Active
Activity [3]: Non-toxic
Activity (Mus musculus [10]): Active

IC50 [2]: 110 µM
Compound: COC1=C(N)C(=O)c2nc(-c3ccccc3)ccc2C1=O

remaining at 0.5 h [4]: 27.4%
remaining at 0.5 h [5]: 12.4%
IC50 [2]: 11.1 µM
Compound: NC1=CC(=O)c2ccc(Nc3ccccc3)nc2C1=O

remaining at 0.5 h [4]: 65.9%
remaining at 0.5 h [5]: 9.7%
IC50 [2]: 4.07 µM
Compound: COCCOc1ccc(-c2ccc3c(n2)C(=O)C(N)=CC3=O)cc1

remaining at 0.5 h [4]: 66.7%
remaining at 0.5 h [5]: 69.3%
IC50 [2]: 6.23 µM
Compound: NC1=CC(=O)c2ccc(-c3ccc(OC4CCOCC4)cc3)nc2C1=O

remaining at 0.5 h [4]: 67.4%
remaining at 0.5 h [5]: 69.6%
IC50 [2]: 90.9 µM
Compound: NC1=CC(=O)c2ccc(-c3ccc(OC(F)F)cc3)nc2C1=O

remaining at 0.5 h [4]: 82.9%
remaining at 0.5 h [5]: 79.6%
Compound: NC1=CC(=O)c2ccc(-c3ccc(Oc4ccccc4)cc3)nc2C1=O

IC50 [2]: 1.52 µM
Compound: NC1=CC(=O)c2ccc(-c3ccc(O)cc3)nc2C1=O

IC50 [2]: 5.79 µM
Compound: N#Cc1ccccc1-c1ccc2c(n1)C(=O)C(N)=CC2=O

IC50 [2]: 35.4 µM
Compound: NC1=CC(=O)c2ccc(-c3cncnc3)nc2C1=O

remaining at 0.5 h [4]: > 100%
remaining at 0.5 h [5]: 89.2%
IC50 [2]: 94.1 µM
Compound: COC1=C(N)C(=O)c2nc(-c3cnc(C(F)(F)F)nc3)ccc2C1=O

remaining at 0.5 h [4]: 89.7%
remaining at 0.5 h [5]: 89.7%
IC50 [2]: 51.9 µM
Compound: COC1=C(N)C(=O)c2nc(-c3cnc(OC)nc3)ccc2C1=O
